In paper PMC5085647:

Assays:
[1] = system: U2OS cells; assay: LDH release cytotoxicity assay; format: cell-based, human; conditions: BTZ 10 nM, positive control, n = 3
Method: The release of LDH (Lactate dehydrogenase) was used as a marker for cell toxicity. After treatment with 50 and 100 µM SsCEI 4 for 24 h, cleared supernatants were incubated with reaction buffer for 30 min at room temperature according to the manufacturer instructions (ab65393, LDH-Cytotoxicity Assay Kit II). Absorbance was measured at 490 nm and the cytotoxicity percentage was calculated as: [(Absorbancetest sample − Absorbancelow control)/(Absorbancehigh control − Absorbancelow control) × 100].

[2] = target: T1, porcine liver APEH (Sus scrofa, UniProt P19205); assay: APEH inhibition in cell-free assay (Ac-Ala-pNA substrate); format: biochemical; conditions: Figure S1A
T1 sequence (P19205 1-732): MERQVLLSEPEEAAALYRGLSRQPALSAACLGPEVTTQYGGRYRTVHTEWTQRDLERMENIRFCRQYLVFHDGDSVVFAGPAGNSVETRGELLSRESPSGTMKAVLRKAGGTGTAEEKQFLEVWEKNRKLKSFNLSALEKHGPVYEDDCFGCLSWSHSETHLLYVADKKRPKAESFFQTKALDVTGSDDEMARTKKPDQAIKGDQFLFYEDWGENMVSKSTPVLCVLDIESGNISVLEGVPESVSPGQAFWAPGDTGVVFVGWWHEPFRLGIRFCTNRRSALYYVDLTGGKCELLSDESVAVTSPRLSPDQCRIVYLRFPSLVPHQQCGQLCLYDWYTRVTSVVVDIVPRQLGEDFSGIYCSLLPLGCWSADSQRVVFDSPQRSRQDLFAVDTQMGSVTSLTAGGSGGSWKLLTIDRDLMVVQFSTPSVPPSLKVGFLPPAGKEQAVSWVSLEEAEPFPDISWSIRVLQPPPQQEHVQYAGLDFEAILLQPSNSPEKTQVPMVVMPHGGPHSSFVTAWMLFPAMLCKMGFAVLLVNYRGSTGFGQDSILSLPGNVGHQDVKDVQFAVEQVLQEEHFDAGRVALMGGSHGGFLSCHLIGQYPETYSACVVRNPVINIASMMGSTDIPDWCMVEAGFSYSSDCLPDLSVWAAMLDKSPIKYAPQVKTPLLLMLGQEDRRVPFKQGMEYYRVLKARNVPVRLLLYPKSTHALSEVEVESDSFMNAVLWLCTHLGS
Method: APEH activity was measured spectrophotometrically using the chromogenic substrate Ac-Ala-pNA (Bachem, Laufelfingen, Switzerland). […] APEH activity was expressed in IU. […] Mixtures were pre-incubated for 30 min at 37 °C before addition of the substrate, and the enzymatic activities were followed as described above. […] Enzymes incubated without inhibitors were used as controls.

[3] = system: Beclin-1 and LC3-II in U2OS cells; assay: Autophagy markers Beclin-1 and LC3-I/LC3-II (Western blot); format: cell-based, human; conditions: Quercetin for 2 h and overnight
Method: For Western blotting analysis, protein aliquots (30 µg/lane) were run on SDS-PAGE (8% or 12.5%) and then electroblotted onto PVDF membranes (ImmobilonTM, Millipore, Milan, Italy). Membranes were next incubated with the specific primary antibodies (1 h at room temperature) and then incubated with the appropriate dilution of secondary antibodies (1 h at room temperature). Immunocomplexes were visualized by enhanced chemiluminescence and autoradiography according to the manufacturer protocol (Santa Cruz Biotechnology) and quantified by densitometric analysis with Image J software (NIH, Bethesda, […], USA), using the β-actin and Vinculin levels as loading control for normalization.
Figure S3. […] (A, left panel)
U2OS cells were treated with DMSO (C) or SsCEI 4 (50 and 100 µM) for 72 h. Then, cell lysates were […]
harvested and subjected to immunoblotting for Beclin-1; (A, right panel) Results of densitometry of […]
Beclin-1 bands are expressed as the mean of relationships between densitometries of Beclin-1 and […]
β-actin bands, used as loading control; (B) U2OS cells were treated with DMSO (C) or SsCEI 4 (50 […]
and 100 µM) for 72 h, and cell lysates were used to analyze LC3-II conversion by immunoblotting […]
using the specific antibody against LC3, which is able to recognize both the upper LC3-I band and […]
the lower LC3-II. […]

Structure (SMILES) | Cytotoxicity (LDH release in culture medium) [1] | Effect toward APEH activity [2] | Beclin-1 and LC3-II levels (autophagy), positive control [3]
CC(C)C[C@H](NC(=O)[C@H](Cc1ccccc1)NC(=O)c1cnccn1)B(O)O [Bortezomib] | exceeding 200% | completely ineffective | 
O=c1c(O)c(-c2ccc(O)c(O)c2)oc2cc(O)cc(O)c12 [Quercetin] |  |  | strongly induced
